Measured values taken from patent US20230346954A1, “N-1 BRANCHED IMIDAZOQUINOLINES, CONJUGATES THEREOF, AND METHODS” (3M INNOVATIVE PROPERTIES COMPANY, priority 2020, published 2023).

Experiments:
Format in all cases: cell-based
human TLR7 = molecular target: T1, human TLR7 (Homo sapiens, UniProt Q9NYK1); assay: TLR activation, HEK-BLUE-hTLR7 SEAP reporter cells; settings: HEK-BLUE-hTLR7, 16-20 h; SEAP response at least 2x vehicle control
T1 construct: host or cells: HEK293 (HEK-BLUE-hTLR7)
T1 sequence (Q9NYK1 27-1049): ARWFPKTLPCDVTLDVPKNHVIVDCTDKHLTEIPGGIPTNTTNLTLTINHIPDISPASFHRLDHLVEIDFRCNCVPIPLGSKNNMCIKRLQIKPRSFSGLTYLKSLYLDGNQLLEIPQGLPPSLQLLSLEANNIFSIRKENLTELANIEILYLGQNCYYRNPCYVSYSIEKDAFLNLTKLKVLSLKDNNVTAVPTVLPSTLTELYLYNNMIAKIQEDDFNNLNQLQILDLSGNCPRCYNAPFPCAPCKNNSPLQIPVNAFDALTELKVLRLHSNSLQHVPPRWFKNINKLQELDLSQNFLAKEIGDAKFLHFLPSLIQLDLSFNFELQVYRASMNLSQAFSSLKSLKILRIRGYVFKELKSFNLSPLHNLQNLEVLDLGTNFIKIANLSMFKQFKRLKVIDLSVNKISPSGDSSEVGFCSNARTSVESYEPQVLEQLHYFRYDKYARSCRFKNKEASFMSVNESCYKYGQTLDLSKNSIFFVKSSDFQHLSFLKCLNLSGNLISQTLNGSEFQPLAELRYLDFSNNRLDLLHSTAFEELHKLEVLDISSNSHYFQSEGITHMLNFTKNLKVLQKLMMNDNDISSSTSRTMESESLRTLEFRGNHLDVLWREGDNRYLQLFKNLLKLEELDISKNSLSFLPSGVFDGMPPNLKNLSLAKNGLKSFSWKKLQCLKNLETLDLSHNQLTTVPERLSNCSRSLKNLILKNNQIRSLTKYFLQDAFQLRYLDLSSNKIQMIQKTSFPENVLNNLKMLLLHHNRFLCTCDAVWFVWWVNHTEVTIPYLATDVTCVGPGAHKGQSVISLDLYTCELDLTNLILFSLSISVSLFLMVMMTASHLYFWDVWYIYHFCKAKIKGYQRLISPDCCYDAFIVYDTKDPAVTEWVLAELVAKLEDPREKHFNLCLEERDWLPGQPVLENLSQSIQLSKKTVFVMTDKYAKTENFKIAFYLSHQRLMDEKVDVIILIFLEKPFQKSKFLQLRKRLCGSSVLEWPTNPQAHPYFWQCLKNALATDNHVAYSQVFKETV
Protocol: (§1) HEK-BLUE-hTLR7 or hTLR8 reporter cells were obtained from InvivoGen, San Diego, CA. According to the manufacturer's description, these reporter cells were prepared by co-transfection of HEK293 cells with an inducible secreted embryonic alkaline phosphatase (SEAP) reporter gene and either the human TLR7 or TLR8 gene. The SEAP reporter gene was placed under the control of an IFN-β minimal promoter fused to five NF-κB and AP-1-binding sites. In the presence of a TLR ligand, activation of NF-κB and AP-1 occurs, resulting in a corresponding increase in SEAP levels. […]
(§2) For each compound, hTLR7, hTLR8, and their respective null control HEK cells were screened. […] Cell culture supernatants containing the SEAP reporter were collected after an incubation period of 16-20 h in a cell culture incubator (37° C. and 5% CO2), and either analyzed immediately or stored at −80° C. SEAP levels were measured using the colorimetric enzyme assay (QUANTI-BLUE (InvivoGen) according to manufacturer's instructions.
(§3) Specifically, the minimum effective concentration of each compound (micromolar) was determined as the lowest concentration of the compound that produced a SEAP expression response at least 2× greater than that observed with the vehicle control wells.

[1] = system: Human peripheral blood mononuclear cells (PBMC); assay: Cytokine induction in human cells (PBMC); settings: 21-24 h, lowest concentration giving at least 2x negative control; for MEC to Induce Cytokine: IFN-alpha: ELISA; for MEC to Induce Cytokine: IFN-gamma / MEC to Induce Cytokine: TNF-alpha: multiplex bead assay
Protocol: Whole blood was obtained from healthy human donors and collected by venipuncture into vacutainer tubes or syringes containing EDTA. Human peripheral blood mononuclear cells (PBMC) were purified from the whole blood by density gradient centrifugation. Histopaque 1077 (15 mL, Sigma, St. Louis, MO) was transferred to 6×50 mL sterile polypropylene conical tubes. The Histopaque was overlayed with 15-25 mL of blood diluted 1:2 in Hank's Balanced Salts Solution (HBSS) (Gibco, Life Technologies, Grand Island, NY). The tubes were then centrifuged at 1370 revolutions per minute (rpm) for 30 min at 20° C., with no brake (400×g, GH 3.8A Rotor).
The interface (buffy coat) containing the PBMC was collected and placed in a new sterile 50 mL conical polypropylene centrifuge tube. The PBMC were mixed with an equal volume of HBSS (about 20 mL from the interface and about 20 mL of HBSS), and then centrifuged at 1090 rpm, 10 min, 20° C., with brake (270×g, GH 3.8A Rotor). After completing centrifugation, the cells were resuspended in 2-3 mL ACK Red blood cell lysis buffer (ammonium chloride potassium solution, Gibco, Life Technologies) and incubated for 2-5 min at 20° C. Next, HBSS (40 mL) was added to the cells, and the sample was centrifuged at 270×g for 10 min at 20° C. The supernatant was decanted, and the cell pellet was resuspended in 5 mL AIM V Medium (Gibco, Life Technologies). Cell aggregates and debris were removed by filtering the cell solution through a BD Falcon 70 micron nylon cell strainer (BD Biosciences, San Jose, CA).
The number of viable cells was determined by counting with a Miltenyi FACS instrument (Miltenyi Biotec Inc., San Diego, CA) or by using a hemacytometer. For determining cell viability with a hemacytometer, the cells were diluted 1/10 in 0.4% trypan blue and HBSS (specifically, 50 microliter of trypan blue+40 microliter of HBSS+10 microliter of cell solution were added to a microfuge tube and mixed). Ten microliters of the diluted cells were then applied to the hemacytometer, and the number of viable PBMC were determined by microscopy.
The PBMC sample was then resuspended in 96-well plates at a concentration of 8×10^5 cells/well in 0.1 mL of AIM-V medium. Each compound was solubilized in dimethyl sulfoxide (DMSO) to create a 3 mM stock solution. The stock solution was then further diluted with AIM-V medium to prepare the serial dilutions. The diluted compound (100 microliters) was then transferred to the PBMCs to produce testing sets with final compound concentrations of 30, 10, 3.3, 1.1, 0.37, 0.12, 0.04, 0.01 micromolar. The plates also had both positive and negative controls. The negative control wells contained only AIM-V medium with no example compound. The positive control wells contained a control set of imiquimod serially diluted to concentrations of 30, 10, 3.3, 1.1, 0.37, 0.12, 0.04, 0.01 micromolar. The concentrations used in the control set were selected to match the concentrations used in the testing set. The plates were then cultured at 37° C./5% CO2 for 21-24 h. Cell-free supernatants were harvested by centrifuging the 96-well plates at 2100 rpm, 23° C. for 10 min. Approximately 160 microliters of the supernatant was then stored in a NUNC 96-well plate, covered with the compression cap and stored at −80° C. until the cytokine analysis was done.
IFN-alpha cytokine levels (picograms/mL) were measured by ELISA (human IFN-alpha, pan specific, Mabtech, Cincinnati, OH). IFN-gamma and TNF-alpha levels (picograms/mL) were measured by multiplex bead assay (magnetic beads, R & D Systems, Minneapolis, MN) according to the manufacturer's instructions.
Specifically, the minimum effective concentration of each compound (micromolar) was determined as the lowest concentration of the compound that induced a measured cytokine response at a level ([…]) that was at least 2× greater than that observed with the negative control wells.

human TLR8 = molecular target: T2, human TLR8 (Homo sapiens, UniProt Q9NR97); assay: TLR activation, HEK-BLUE-hTLR8 SEAP reporter cells; settings: HEK-BLUE-hTLR8, 16-20 h; SEAP response at least 2x vehicle control
T2 construct: host or cells: HEK293 (HEK-BLUE-hTLR8)
T2 sequence (Q9NR97 27-1041): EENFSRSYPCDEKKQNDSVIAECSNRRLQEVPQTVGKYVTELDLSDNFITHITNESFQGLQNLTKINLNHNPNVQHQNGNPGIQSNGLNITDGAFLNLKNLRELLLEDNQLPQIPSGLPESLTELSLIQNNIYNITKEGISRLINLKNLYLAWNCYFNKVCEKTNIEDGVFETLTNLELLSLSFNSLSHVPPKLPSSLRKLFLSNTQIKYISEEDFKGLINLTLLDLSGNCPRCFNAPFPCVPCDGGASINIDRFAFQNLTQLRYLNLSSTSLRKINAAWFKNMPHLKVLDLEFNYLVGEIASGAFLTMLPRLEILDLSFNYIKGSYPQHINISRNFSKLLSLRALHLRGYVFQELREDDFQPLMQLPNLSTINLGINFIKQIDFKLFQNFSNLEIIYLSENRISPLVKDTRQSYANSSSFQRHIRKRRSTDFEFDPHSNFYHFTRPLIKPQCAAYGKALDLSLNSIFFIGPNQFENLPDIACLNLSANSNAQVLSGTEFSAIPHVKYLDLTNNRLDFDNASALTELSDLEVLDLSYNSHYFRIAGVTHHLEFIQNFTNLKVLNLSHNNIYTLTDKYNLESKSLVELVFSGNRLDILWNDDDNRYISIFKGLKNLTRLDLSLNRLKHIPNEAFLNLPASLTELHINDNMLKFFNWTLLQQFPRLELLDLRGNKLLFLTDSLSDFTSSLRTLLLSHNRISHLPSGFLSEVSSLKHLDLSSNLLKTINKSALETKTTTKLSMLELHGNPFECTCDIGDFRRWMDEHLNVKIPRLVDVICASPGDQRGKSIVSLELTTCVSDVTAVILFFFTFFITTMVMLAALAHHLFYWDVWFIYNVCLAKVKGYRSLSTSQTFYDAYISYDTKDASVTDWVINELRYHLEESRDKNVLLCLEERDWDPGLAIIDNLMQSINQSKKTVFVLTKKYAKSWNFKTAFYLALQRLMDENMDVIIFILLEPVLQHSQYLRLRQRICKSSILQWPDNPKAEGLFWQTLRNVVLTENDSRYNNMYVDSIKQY
Protocol: as §1, §2, §3

MEC to Produce TLR Activation: TLR 7 (human TLR7)	MEC to Produce TLR Activation: TLR 8 (human TLR8)	SMILES	MEC to Induce Cytokine: IFN-alpha [1]	MEC to Induce Cytokine: IFN-gamma [1]	MEC to Induce Cytokine: TNF-alpha [1]
≤0.01 µM	1.1 µM	CCOC[C@H](Cc1ccc(OCCO)cc1)n1cnc2c(N)nc3ccccc3c21 [Example 1, (S)-2-(4-(2-(4-amino-1H-imidazo[4,5-c]quinolin-1-yl)-3-ethoxypropyl)phenoxy)ethan-1-ol]	≤0.01 µM	≤0.01 µM	≤0.01 µM
≤0.01 µM	1.1 µM	CCOC[C@H](Cc1ccc(OCCN)cc1)n1cnc2c(N)nc3ccccc3c21 [Example 2, (S)-1-(1-(4-(2-aminoethoxy)phenyl)-3-ethoxypropan-2-yl)-1H-imidazo[4,5-c]quinolin-4-amine]	≤0.01 µM	≤0.01 µM	≤0.01 µM
